Results from patent US8906952B2, “Indole derivative or pharmaceutically acceptable salt thereof, preparation method thereof, and pharmaceutical composition for preventing or treating metabolic diseases containing same as active ingredient” (Korea Research Institute of Bioscience and Biotechnology, priority 2011, dated 2014).
pIC50: −log10 of the molar value.

Key:
[1] = molecular target: T1, human DGAT1 (Homo sapiens, UniProt O75907); experiment: DGAT enzyme inhibition test, hDGAT1 enzyme from sf9 insect cells; format: biochemical; conditions: enzyme from sf9 cells overexpressing hDGAT1; read-out: hDGAT-1 (sf9) IC50
T1 construct: made in house; host or cells: sf9 insect cells
T1 sequence (O75907 1-488): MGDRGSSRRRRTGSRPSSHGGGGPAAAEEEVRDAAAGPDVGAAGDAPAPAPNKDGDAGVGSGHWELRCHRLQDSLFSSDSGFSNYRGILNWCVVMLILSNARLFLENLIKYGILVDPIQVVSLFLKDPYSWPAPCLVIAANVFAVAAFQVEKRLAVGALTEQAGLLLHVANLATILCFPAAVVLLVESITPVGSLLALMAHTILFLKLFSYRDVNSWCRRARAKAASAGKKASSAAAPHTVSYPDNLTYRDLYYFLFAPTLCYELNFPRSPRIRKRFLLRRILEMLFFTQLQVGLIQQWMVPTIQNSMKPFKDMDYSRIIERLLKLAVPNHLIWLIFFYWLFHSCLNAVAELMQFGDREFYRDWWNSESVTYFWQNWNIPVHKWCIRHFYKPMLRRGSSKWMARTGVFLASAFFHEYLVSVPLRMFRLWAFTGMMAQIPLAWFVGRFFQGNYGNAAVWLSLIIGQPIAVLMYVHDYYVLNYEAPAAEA
Description: (§1) To investigate inhibitory effect of the compounds of Examples 1-33 against DGAT enzyme activity, DGAT enzyme inhibition and DGAT2 selectivity were investigated using zymogen including:
1) hDGAT1 and hDGAT2 enzymes, derived from insect cell overexpressing human DGAT1 and DGAT2 (‘sf9’), respectively,
(§2) To be specific, for the purpose of measuring human-derived DGAT enzyme inhibitory activity, using the zymogen, including enzymes derived from insect cell overexpressing human DGAT1 and DGAT2 (‘sf9’), microsomal protein isolated from human duodenal adenocarcinoma (‘Hutu 80’), and microsomal protein isolated from rat, and according to Coleman et al., (Methods Enzymol., 98-103, 1992), and substrate including 1,2-diacylglycerol(Sigma, D0138) and [^14C]palmitoyl-CoA (Amersham, CFA583), the amount of radiation of [^14C]triacylglycerol produced after enzymatic reaction was measured.
(§3) To be more specific, to the reaction solution containing 175 mM Tris-HCl (pH 8.0), 20 μl bovine serum albumin (10 mg/ml), 100 mM magnesium chloride, 30 μM [^14C]palmitoyl CoA (0.02 μCi, Amersham) and 200 μM 1,2-dioleoylglycerol, reagent dissolved in dimethylsulfoxide (10.0 μl) was added. After introducing 100 to 200 μg isolated microsomal protein and allowing the same to react at 25° C. for 10 min, the reaction was stopped by adding 1.5 ml stop solution (2-propanol:heptane:water=80:20:2, v:v:v). To isolate the product of the reaction (i.e., [^14C]triacylglycerol), 1 ml heptane and 0.5 ml distilled water were added and then decocted. After taking 1 ml supernatant, 2 ml alkaline ethanol solution (ethanol:0.5 N sodium hydroxide:water=50:10:40, v:v:v) were added and then decocted. After taking 0.65 ml supernatant from the decoction, the amount of radiation was measured with liquid scintillation counter (LSC). The DGAT inhibitory activity was calculated with Mathematical Expression 1 below:
(§4) T denotes cpm of experimental group in which the enzymatic reaction solution was treated with the sample,
(§5) C denotes cpm of control group in which the enzymatic reaction solution was not treated with the sample, and
(§6) B denotes cpm of control group treated with the sample without zymogen.

[2] = molecular target: T2, hDGAT-1 (HuTu 80) (Homo sapiens, UniProt O75907); experiment: DGAT enzyme inhibition test, microsomal protein from human duodenal adenocarcinoma (Hutu 80); format: biochemical; conditions: microsomal protein from HuTu 80
T2 construct: microsomal protein isolated from human duodenal adenocarcinoma (‘Hutu 80’); endogenous in cells; host or cells: HuTu 80 human duodenal adenocarcinoma cells (microsomes)
T2 sequence (O75907 1-488): T1 sequence (O75907 1-488)
Description: as §1
2) DGAT enzyme derived from human duodenal adenocarcinoma (‘Hutu 80’), and
as §2, §3, §4, §5, §6

[3] = system: HepG2 cells; experiment: DGAT inhibitory effect in HepG2 cells (triglyceride production from [14C]glycerol); format: cell-based; conditions: Homo sapiens; for activity at 10 µM: HepG2, 6 h, DMSO control = 100, read-out: Triglyceride production rate (%)/HepG2 cells at 10 μM; for inhibition at 10 µM: HepG2, 10 μM, read-out: biosynthesis inhibition rate of triglyceride
Procedure: To investigate inhibition effect on intracellular DGAT enzyme activity of the compounds obtained in Examples 1-51, intracellular DGAT enzyme activity was measured using human-derived liver HepG2 cells.
HepG2 cells were purchased from ATCC, and cultured in 37° C., 5% CO2 incubator including minimum essential medium (2 mM L-glutamine, earle's BSS adjusted to contain 1.5 g/L sodium bicarbonate, 0.1 mM nonessential amino acids, and 1 mM sodium pyruvate) added with 10% fetal bovine serum (FBS) and 1% antibiotic (100 U/ml penicillin and 100 µg/ml streptomycin).
The intracellular DGAT enzyme activity was measured based on an amount of triglycerides produced in the cultured HepG2 cells, by adding 10 μM enzyme inhibitor compounds obtained in Examples 1-51, respectively, and then determining the effect of the enzyme inhibitors according to reduction rate of the triglyceride production.
Specifically, cells were seeded 1×10^6 cell/ml per well of the 24 well culture plate, and 24 hours after incubation, medium was exchanged with FBS-free DMEM medium, and sample of 0.2 mCi [^14C]glycerol (Amersham) was added as substrate, and the reaction was allowed to occur for 6 hr. The induced production of triglyceride was catalyzed by the DGAT enzyme, and DGAT enzyme activity was determined based on the amount of production of triglyceride which was measured based on the amount of radiation. The sample was dissolved in dimethylsulfoxide (DMSO) to be used, and the control group in the triglyceride production reaction was reacted with dimethylsulfoxide only (i.e., without sample), and the amount of the triglyceride production rate was set to 100.
After the reaction completed, the substrate [^14C]glycerol which was either not absorbed into cells or not used for the reaction, were removed with phosphate-buffer-saline (PBS), and 0.5 ml extraction solvent (hexane:isopropanol=3:2, v:v) was added to extract full fat containing triglycerides. With 0.5 ml extraction solvent, extract was obtained two times for 30 min each, and 1 ml of the extract was concentrated with nitrogen gas. After removing the extraction solvent, the total fat was dissolved in organic solvent (chloroform:methanol=2:1) and spotted with thin-layer chromatography (TLC:silica gel 60F254, thickness: 0.5 mm, Merck) on the developing solvent (hexane:diethyl ether:acetic acid=80:20:1, v: v: v). Triglycerides (Rf value: 0.4) were isolated on TLC, and after exposing the TLC plate to the film with photosensitivity to radiation energy (imaging plate' Fujifilm, BMS-MS 2040) for 3 hr, the amount of [^14C] radiation of triglyceride was measured by imaging analysis (FLA 7000). The remaining cells after the extraction were dissolved in 0.3 ml 0.1 N sodium hydroxide for use in the measurement of protein concentration of the cells used for the reaction.
The experimental errors among the respective experimental groups were compensated with the experimental value which was obtained by dividing the measured radiation of triglyceride by protein concentration, and the production rate of triglyceride according to the respective compounds of Examples 1-51 are tabulated below.

pIC50 [1]	pIC50 [2]	Compound	activity at 10 µM [3]	inhibition at 10 µM [3]
5.17	5.59	CC(C)N(NC(=O)c1cccc(Br)c1)C(=O)/C=C/c1cn(C(=O)OC(C)(C)C)c2ccccc12 [Example 12, (E)-tert-butyl 3-(3-(2-(3-bromobenzoyl)-1-isopropylhydrazinyl)-3-oxoprop-1-enyl)-1H-indole-1-carboxylate]	93.5%	
4.69	5.09	CC(C)N(NC(=O)c1ccc(Br)cc1)C(=O)/C=C/c1cn(C(=O)OC(C)(C)C)c2ccccc12 [Example 13, (E)-tert-butyl 3-(3-(2-(4-bromobenzoyl)-1-isopropylhydrazinyl)-3-oxoprop-1-enyl)-1H-indole-1-carboxylate]	87.1%	
5.06	5.57	CC(C)N(NC(=O)c1ccc(Cl)cc1)C(=O)/C=C/c1cn(C(=O)OC(C)(C)C)c2ccccc12 [Example 14, (E)-tert-butyl 3-(3-(2-(4-chlorobenzoyl)-1-isopropylhydrazinyl)-3-oxoprop-1-enyl)-1H-indole-1-carboxylate]	84.4%	
4.69	5.96	CC(C)N(NC(=O)c1cccc(F)c1)C(=O)/C=C/c1cn(C(=O)OC(C)(C)C)c2ccccc12 [Example 15, (E)-tert-butyl 3-(3-(2-(3-fluorobenzoyl)-1-isopropylhydrazinyl)-3-oxoprop-1-enyl)-1H-indole-1-carboxylate]	71.2%	20 to 30%
< 4.00	4.97	CC(C)(C)OC(=O)n1cc(/C=C/C(=O)NNC(=O)c2ccccc2)c2ccccc21 [Example 16, (E)-tert-butyl 3-(3-(2-benzoylhydrazinyl)-3-oxoprop-1-enyl)-1H-indole-1-carboxylate]	61.7%	30 to 40%
< 4.00	< 4.00	CC(C)(C)OC(=O)n1cc(/C=C/C(=O)NNS(=O)(=O)c2ccccc2)c2ccccc21 [Example 17, (E)-tert-butyl 3-(3-oxo-3-(2-(phenylsulfonyl)hydrazinyl)prop-1-enyl)-1H-indole-1-carboxylate]	81.7%	
< 4.00	5.49	COC(=O)COc1cccc(C(=O)NN(C(=O)/C=C/c2cn(C(=O)OC(C)(C)C)c3ccccc23)C(C)C)c1 [Example 18, (E)-tert-butyl 3-(3-(1-isopropyl-2-(3-(2-methoxy-2-oxoethoxy)benzoyl)hydrazinyl)-3-oxoprop-1-enyl)-1H-indole-1-carboxylate]	102%	
< 4.00	4.13	CC(C)N(NC(=O)c1cccc(OCC(N)=O)c1)C(=O)/C=C/c1cn(C(=O)OC(C)(C)C)c2ccccc12 [Example 20, (E)-tert-butyl 3-(3-(2-(3-(2-amino-2-oxoethoxy)benzoyl)-1-isopropylhydrazinyl)-3-oxoprop-1-enyl)-1H-indole-1-carboxylate]	109%	
< 4.00	4.53	CC(C)N(NC(=O)c1ccccc1)C(=O)CCc1cn(Cc2ccccc2)c2ccccc12 [Example 21, N′-(3-(1-benzyl-1H-indol-3-yl)propanoyl)-N′-isopropylbenzohydrazide]	103%	
< 4.00	4.35	CC(C)N(NC(=O)c1ccccc1)C(=O)/C=C/c1c[nH]c2ccccc12 [Example 22, (E)-N′-(3-(1H-indol-3-yl)acryloyl)-N′-isopropylbenzohydrazide]	116%	
4.02	4.59	CC(C)N(NC(=O)c1ccccc1)C(=O)CCc1c[nH]c2ccccc12 [Example 23, N′-(3-(1H-indol-3-yl)propanoyl)-N′-isopropylbenzohydrazide]	87.7%	
< 4.00	5.04	CC(C)N(NC(=O)c1ccccc1)C(=O)CCc1cn(C(=O)OC(C)(C)C)c2ccccc12 [Example 24, tert-butyl 3-(3-(2-benzoyl-1-isopropylhydrazinyl)-3-oxopropyl)-1H-indole-1-carboxylate]	60.7%	30 to 40%
4.55	4.53	CC(C)N(NC(=O)c1ccccc1)C(=O)/C=C/c1cn(C)c2ccccc12 [Example 25]	88.6%	
4.87	5.54	CC(C)N(NC(=O)c1ccccc1)C(=O)/C=C/c1cn(Cc2ccccc2)c2ccccc12 [Example 26, (E)-N′-(3-(1-benzyl-1H-indol-3-yl)acryloyl)-N′-isopropylbenzohydrazide]	59.8%	30 to 40%
4.93	5.59	CC(C)=CCn1cc(/C=C/C(=O)N(NC(=O)c2ccccc2)C(C)C)c2ccccc21 [Example 27, (E)-N′-isopropyl-N′-(3-(1-(3-methylbut-2-enyl)-1H-indol-3-yl)acryloyl)benzohydrazide]	58.5%	
4.38	5.09	CC(C)N(NC(=O)c1ccccc1)C(=O)/C=C/c1cn(CC2CC2)c2ccccc12 [Example 28, (E)-N′-(3-(1-(cyclopropylmethyl)-1H-indol-3-yl)acryloyl)-N′-isopropylbenzohydrazide]	64.4%	30 to 40%

Compound	pIC50 [1]	pIC50 [2]	activity at 10 µM [3]	inhibition at 10 µM [3]
CC(C)N(NC(=O)c1cccc(OCC(=O)O)c1)C(=O)/C=C/c1cn(C(=O)OC(C)(C)C)c2ccccc12 [Example 19, (E)-2-(3-(2-(3-(1-(tert-butoxycarbonyl)-1H-indol-3-yl)acryloyl)-2-isopropylhydrazinecarbonyl)phenoxy)acetic acid]	< 4.00	< 4.00	103%	
